Tests used:
[1] = test system: Vancomycin-resistant Enterococcus faecalis (VRE); test: CLSI Vancomycin disk-diffusion test; type: cell-based; details: VRE ATCC 51575; CLSI Vancomycin resistant range: ≦14 mm
[2] = test system: Methicillin-resistant Staphylococcus aureus (MRSA); test: MIC/MBC susceptibility test, macrodilution broth method; type: cell-based; details: MRSA ATCC 33592; Tryptic soy agar with 5% sheep blood; 36° C. for 48 hours; 5.2 × 10^5 CFU/ml
Protocol: (§1) Susceptibility of various microorganisms to gallium was tested by determining the minimum inhibitory concentration (MIC) and minimum bactericidal concentration (MBC) for each microorganism using gallium nitrate. In general, MIC is determined by (i) mixing a series of broths, each containing a standard number of microorganisms, with serially diluted solutions of the gallium compound; and (ii) determining the MIC, after incubation, that is the lowest concentration of the gallium compound that inhibits the growth of the microorganism. The lower the MIC, the more susceptible the organism is. The MBC is determined by subculturing an aliquot of each sample from the MIC test on an appropriate agar plate containing no gallium compound.
(§2) Specifically, in the present experiment, two grams of gallium nitrate powder were dissolved in 10 ml of filter-sterilized deionized water and the resulting 20% (w/v) (i.e., 200 mg/ml) solution was once again filter-sterilized. Two-fold serial dilutions were prepared in sterile deionized water down to 0.156% (i.e., 1.56 mg/ml) for the tests for most of the organisms, except for the test for Candida albicans, in which 10%, 1%, 0.5%, 0.1%, 0.05%, 0.01%, 0.005% and 0.001% of gallium nitrate solutions were prepared.
(§3) All organisms were obtained from the American Type Culture Collection (ATCC), Manassas, Va. Each microorganism was picked from the seed culture (see Table 1) and inoculated in an appropriate type of broth to obtain a 0.5 McFarland turbidity standard. The standard suspension of the microorganism was then diluted to 1:100 with the broth and used for the tests.
(§4) Each microorganism was tested in duplicate by either a microdilution broth method in 96-well plates (i.e., 0.1 ml of the gallium nitrate solution mixed with 0.1 ml of the microorganism suspension) or a macrodilution broth method in test tubes (i.e., 1 ml of the gallium nitrate solution mixed with 1 ml of the microorganism suspension) as follows: […]
(§5) The growth of the microorganisms were determined by visual observation of turbidity in the samples. […]

[3] = test system: Vancomycin-resistant Enterococcus faecalis (VRE); test: as above; type: cell-based; details: VRE ATCC 51575; Tryptic soy agar with 5% sheep blood; 36° C. for 48 hours; 3.9 × 10^5 CFU/ml
Protocol: as §1, §2, §3, §4, §5

Salmonella typhi = test: as above; type: cell-based; details: Salmonella typhi ATCC 6539; Tryptic soy agar with 5% sheep blood; 36° C. for 48 hours; 8.3 × 10^5 CFU/ml
Protocol: as §1, §2, §3, §4, §5

[4] = healthy adults; intravenous infusion for at least 7 days; from U.S. Pat. No. 6,203,822; cited from earlier work
Escherichia coli O157:H7 = test: MIC/MBC susceptibility test, microdilution broth method; type: cell-based; details: E. coli O157:H7 ATCC 35150; Tryptic soy agar with 5% sheep blood; 36° C. for 48 hours; 1.38 × 10^6 CFU/ml
Protocol: as §1, §2, §3
(§6) Each microorganism was tested in duplicate by either a microdilution broth method in 96-well plates (i.e., 0.1 ml of the gallium nitrate solution mixed with 0.1 ml of the microorganism suspension) or a macrodilution broth method in test tubes (i.e., 1 ml of the gallium nitrate solution mixed with 1 ml of the microorganism suspension) as follows:
(§7) Microdilution broth method: Candida albicans; Escherichia coli O157:H7; and Campylobacter jejuni.
(§8) The growth of the microorganisms were determined by visual observation of turbidity in the samples.
(§9) To determine MBC, 10 μl of each sample used in MIC were inoculated onto an appropriate agar plate and incubated.

Candida albicans = test: as above; type: cell-based; details: Candida albicans ATCC 10231, 27° C. for 48 hours, 9.75 × 10^5 CFU/ml
Protocol: as §1, §2, §3, §6, §7, §8, §9

Campylobacter jejuni = test: as above; type: cell-based; details: Campylobacter jejuni ATCC 29428; Tryptic soy agar with 5% sheep blood; 36° C. for 48 hours; 4.9 × 10^5 CFU/ml
Protocol: as §1, §2, §3, §6, §7, §8, §9

Row | SMILES | zone of inhibition [1] | MBC [2] | MBC [3] | MBC (Salmonella typhi) | tolerated dose [4] | MBC (Escherichia coli O157:H7) | MIC (Candida albicans; Sabouraud Dextrose broth) | MBC (Candida albicans; Sabouraud dextrose agar) | MBC (Campylobacter jejuni)
1 | CN[C@H](CC(C)C)C(=O)N[C@H]1C(=O)N[C@@H](CC(N)=O)C(=O)N[C@H]2C(=O)N[C@H]3C(=O)N[C@H](C(=O)N[C@H](C(=O)O)c4cc(O)cc(O)c4-c4cc3ccc4O)[C@H](O)c3ccc(c(Cl)c3)Oc3cc2cc(c3O[C@@H]2O[C@H](CO)[C@@H](O)[C@H](O)[C@H]2O[C@H]2C[C@](C)(N)[C@H](O)[C@H](C)O2)Oc2ccc(cc2Cl)[C@H]1O [Vancomycin] | ^bAntibiotics resistance of the organism was confirmed by CLSI Vancomycin disk-diffusion test. The zone of inhibition was 10 mm (CLSI Vancomycin resistant range: ≦14 mm). | – | – | – | – | – | – | – | –
2 | O=[N+]([O-])[O-].O=[N+]([O-])[O-].O=[N+]([O-])[O-].[Ga+3] [gallium nitrate] | – | 12500 µg/mL | 25000 µg/mL | 6250 µg/mL | at least 200 mg/m^2/day | 6250 µg/mL | 10000 µg/mL | >100000 µg/mL | <780 µg/mL

Reference: US8895077B2, “Methods for preventing or treating infectious diseases caused by extracellular microorganisms, including antimicrobial-resistant strains thereof, using gallium compounds” (priority 2007, dated 2014)
